In US6469026B2, “Isoquinolone inhibitors of factor Xa” (Millennium Pharmaceuticals, Inc., priority 2000, dated 2002):

Legend:
factor Xa = factor Xa (Homo sapiens, UniProt P00742); test: factor Xa amidolytic assay (XA); type: biochemical; conditions: substrate S-2765, 5 min preincubation, room temperature, pH 7.5
Description: (§1) The compounds of the present invention are dissolved in buffer to give solutions containing concentrations such that assay concentrations range from 0 to 100 μM. In the assays for thrombin, prothrombinase and factor Xa, a synthetic chromogenic substrate is added to a solution containing test compound and the enzyme of interest and the residual catalytic activity of that enzyme is detennined spectrophotometrically. The IC50 of a compound is determined from the substrate turnover. The IC50 is the concentration of test compound giving 50% inhibition of the substrate turnover.
(§2) The factor Xa and thrombin assays were performed at room temperature, in 0.02 M TrisHCl buffer, pH 7.5, containing 0.15 M NaCl. The rates of hydrolysis of the para-nitroanilide substrate S-2765 (Chromogenix) for factor Xa, and the substrate Chromozym TH (Boehringer Mannheim) for thrombin following preincubation of the enzyme with inhibitor for 5 minutes at room temperature, and were determined using the Softmax 96-well plate reader (Molecular Devices), monitored at 405 nm to measure the time dependent appearance of p-nitroaniline.

thrombin = biological target: T1, thrombin (Homo sapiens, UniProt P00734); test: thrombin amidolytic assay (IIA); type: biochemical; conditions: substrate Chromozym TH, 5 min preincubation, room temperature, pH 7.5
T1 construct: proteolytic cleavage of its precursor prothrombin at the Arg-Thr linkage at positions 271-272 and the Arg-Ile linkage at positions 320-321
Description: as §1, with “The compounds of the present invention are dissolved in buffer to give solutions containing concentrations such that assay concentrations range from 0 to 100 μM.” left out
as §2

Chain of factor Xa (P00742 235-488 limits assumed): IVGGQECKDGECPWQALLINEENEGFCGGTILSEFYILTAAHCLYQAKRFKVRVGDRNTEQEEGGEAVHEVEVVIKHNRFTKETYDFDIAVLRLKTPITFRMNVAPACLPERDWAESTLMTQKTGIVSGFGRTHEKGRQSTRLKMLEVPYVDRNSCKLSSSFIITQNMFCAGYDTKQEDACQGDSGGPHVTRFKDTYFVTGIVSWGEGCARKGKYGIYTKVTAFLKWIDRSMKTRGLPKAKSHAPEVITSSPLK
Chain of factor Xa (P00742 41-179 partner limits assumed): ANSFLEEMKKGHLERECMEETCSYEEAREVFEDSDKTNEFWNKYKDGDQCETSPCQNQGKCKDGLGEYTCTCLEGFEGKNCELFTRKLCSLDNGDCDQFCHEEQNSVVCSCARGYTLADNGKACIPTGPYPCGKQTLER

SMILES	IC50 (factor Xa)	IC50 (thrombin)
CC(=N)N1CCC(Oc2ccc3c(c2)CCN(C(Cc2cccc(C(=N)N)c2)C(=O)NC(C)(C)C)C3=O)CC1 (centres unmarked) [Example 13]	993 nM	35900 nM
CC(=N)N1CCC(Oc2ccc3c(c2)CCN(C(Cc2cccc(C(=N)N)c2)C(=O)O)C3=O)CC1 (centres unmarked) [Example 14]	810 nM	–
N=C(N)c1cccc(CC(C(=O)O)N2CCc3cc(OC4CCN(C(=N)N)CC4)ccc3C2=O)c1 (centres unmarked) [Example 15]	794 nM	–
COC(=O)C(Cc1ccc2ccc(C(=N)N)cc2c1)N1CCc2cc(OC3CCN(C(=N)N)CC3)ccc2C1=O (centres unmarked) [Example 16]	693 nM	228000 nM
CC(=N)N1CCC(Oc2ccc3c(c2)CCN(C(Cc2ccc4ccc(C(=N)N)cc4c2)C(=O)O)C3=O)CC1 (centres unmarked) [Example 17]	348 nM	–
N=C(N)c1ccc2ccc(CC(C(=O)O)N3CCc4cc(OC5CCN(C(=N)N)CC5)ccc4C3=O)cc2c1 (centres unmarked) [Example 18]	282 nM	–
CC(=N)N1CCC(Oc2ccc3c(c2)CCN(C(Cc2ccc4ccc(C(=N)N)cc4c2)C(=O)OC(C)(C)C)C3=O)CC1 (centres unmarked) [Example 19]	258 nM	119000 nM
CC(C)(C)OC(=O)C(Cc1ccc2ccc(C(=N)N)cc2c1)N1CCc2cc(OC3CCN(C(=N)N)CC3)ccc2C1=O (centres unmarked) [Example 20]	168 nM	101000 nM
COC(=O)C(Cc1cccc(C(=N)N)c1)N1CCc2cc(OC3CCN(C(=N)N)CC3)ccc2C1=O (centres unmarked) [Example 21]	152 nM	402000 nM
COC(=O)C(Cc1cccc(C(=N)N)c1)N1CCc2cc(OC3CCN(C(C)=N)CC3)ccc2C1=O (centres unmarked) [Example 22]	129 nM	393000 nM
CC(C)(C)OC(=O)C(Cc1cccc(C(=N)N)c1)N1CCc2cc(OC3CCN(C(=N)N)CC3)ccc2C1=O (centres unmarked) [Example 23]	47.5 nM	233000 nM
CC(=N)N1CCC(Oc2ccc3c(c2)CCN(C(Cc2cccc(C(=N)N)c2)C(=O)OC(C)(C)C)C3=O)CC1 (centres unmarked) [Example 24]	22.1 nM	150000 nM
